Measurements published in patent publication US8614181B2, “Stabilized pharmaceutical peptide compositions” (Novo Nordisk A/S, priority 2003, dated 2013).

Assay: Thioflavin T-test (ThT) of physical stability (fibril formation) of pharmaceutical formulations after storage at 37° C.
Type: physicochemical
Conditions: for Fluorescence units after storage at 37° C., T = 0 week / Fluorescence units after storage at 37° C., T = 1 month / Fluorescence units after storage at 37° C., T = 1 week: pH of pharmaceutical formulation 7.4
Experimental: Before freeze drying the solution or suspension of the peptide it has been adjusted to the aimed pH. After freeze drying pharmaceutical formulations were prepared according to General procedure 1 and 2.
Preservative, isotonic agent and buffer were dissolved in water and pH adjusted to 7.4. Hereafter the freeze dried peptide was dissolved while stirring slowly. The pH was adjusted to 7.4 using Sodium Hydroxide and/or Hydrochloric Acid. Finally, the formulation was filtered through a 0.22 μm filter.
(§1) Preservative, isotonic agent and buffer were dissolved in water and pH adjusted to 7.4. The peptide was dissolved in water while stirring slowly. The two solutions were mixed and pH adjusted to 7.4 using Sodium Hydroxide and/or Hydrochloric acid. Finally, the formulation was filtered through a 0.22 μm filter.
as §1, with “7.4 or lower. Compound 1” for “7.4. The peptide”, “slowly and pH is adjusted to 11.5 by the addition of Sodium Hydroxide. After approx. 5 min the” for “slowly. The”
Physical stability of the formulations is evaluated by means of the Thioflavin T-test. The physical stability of the different formulations is characterized by their tendency to form fibrils. A method to determine the presence of fibrils is the Thioflavin T-test. The histological thiazole dye Thioflavin T (ThT) is used as an indicator of amyloid fibril formation. The method is based on the fluorescent characteristics of ThT. […] The physical stability of the formulations is evaluated by the ThT-test after storage of the formulation is top filled glass cartridges for various time periods.

[1] = pH of Compound 1 before freeze drying 8.0, 3 mg/ml
[2] = pH of Compound 1 before freeze drying 9.5, 3 mg/ml
[3] = pH of Compound 1 before freeze drying 9.5, 6.25 mg/ml
[4] = pH of Compound 1 before freeze drying 11.5, 3 mg/ml
[5] = pH of Compound 1 before freeze drying 11.5, 6.25 mg/ml
[6] = pH of solution containing the drug substance 8.0, 6.25 mg/ml
[7] = pH of solution containing the drug substance 11.5, 6.25 mg/ml

Physical stability (change in ThT) after 1 week and 1 months storage at 37° C. (Compound 1 adjusted to pH 8.0 before freeze drying): an increase in ThT is seen | Physical stability (change in ThT) after 1 week and 1 months storage at 37° C. (Compound 1 adjusted to pH 9.5 before freeze drying): no increase in ThT is seen | Physical stability (change in ThT) after 1 week and 1 months storage at 37° C. (Compound 1 adjusted to pH 11.5 before freeze drying): no increase in ThT is seen | Fluorescence units after storage at 37° C., T = 0 week [1]: 6 fluorescence units | Fluorescence units after storage at 37° C., T = 1 month [1]: 28 fluorescence units | Fluorescence units after storage at 37° C., T = 1 month (pH of Compound 1 before freeze drying 8.0, 6.25 mg/ml): 37 fluorescence units | Fluorescence units after storage at 37° C., T = 0 week [2]: 6 fluorescence units | Fluorescence units after storage at 37° C., T = 1 month [2]: 7 fluorescence units | Fluorescence units after storage at 37° C., T = 1 month [3]: 13 fluorescence units | Fluorescence units after storage at 37° C., T = 1 week [3]: 13 fluorescence units | Fluorescence units after storage at 37° C., T = 0 week [4]: 6 fluorescence units | Fluorescence units after storage at 37° C., T = 1 month [4]: 7 fluorescence units | Fluorescence units after storage at 37° C., T = 0 week [5]: 14 fluorescence units | Fluorescence units after storage at 37° C., T = 1 month [5]: 14 fluorescence units | Fluorescence units after storage at 37° C., T = 1 week [5]: 13 fluorescence units | Fluorescence units after storage at 37° C., T = 0 week [6]: 14 fluorescence units | Fluorescence units after storage at 37° C., T = 1 month [6]: 41 fluorescence units | Fluorescence units after storage at 37° C., T = 1 week [6]: 20 fluorescence units | Fluorescence units after storage at 37° C., T = 0 week [7]: 13 fluorescence units | Fluorescence units after storage at 37° C., T = 1 month [7]: 13 fluorescence units | Fluorescence units after storage at 37° C., T = 1 week [7]: 12 fluorescence units | Physical stability (change in ThT) after 1 month at 37° C. (pH raised above neutral pH (>8) in the solution containing the drug substance): no increase in ThT is seen
Substance: Arg^34, Lys^26 (N^ε-(γ-Glu(N^α-hexadecanoyl)))GLP-1(7-37) [Compound 1]
